In patent EP0238905B1, “4-(2-pyrimidinyl)-1-piperazinyl heterocyclic carbonyl derivatives” (MERRELL DOW PHARMACEUTICALS INC., priority 1986, dated 1987):

Biological target: T1, 5-HT1A recognition sites (Rattus norvegicus, UniProt P19327)
T1 construct: Tissues from 4-8 rats are pooled and homogenized in 70 vol Tris-HCl buffer; from tissue; host or cells: Sprague-Dawley rat frontal cortex membrane homogenate
T1 sequence (P19327 1-422): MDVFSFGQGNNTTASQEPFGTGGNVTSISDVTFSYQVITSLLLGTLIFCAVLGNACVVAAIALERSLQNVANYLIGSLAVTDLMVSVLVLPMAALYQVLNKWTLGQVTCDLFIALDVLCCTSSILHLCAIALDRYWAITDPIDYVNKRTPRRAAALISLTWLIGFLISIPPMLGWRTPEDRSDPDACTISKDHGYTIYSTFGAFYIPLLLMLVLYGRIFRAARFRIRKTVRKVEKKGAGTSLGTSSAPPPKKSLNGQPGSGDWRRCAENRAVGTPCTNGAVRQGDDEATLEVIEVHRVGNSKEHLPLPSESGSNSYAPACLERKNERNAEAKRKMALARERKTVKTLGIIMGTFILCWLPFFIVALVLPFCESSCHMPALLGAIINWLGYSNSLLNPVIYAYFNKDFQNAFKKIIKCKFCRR
Experiment: In vitro 5-HT1A radioligand binding ([³H]-8-OH-DPAT)
Design: species or system Sprague-Dawley rat
Conditions: rat frontal cortex homogenate; radioligand [³H]-8-OH-DPAT; 37°C for 15 min; results expressed as pIC₅₀; read-out: 5-HT1A Binding Affinity Rat Brain cortex (converted)
Experimental: Radioligand binding studies of the 5-HT1A recognition sites are conducted in the following manner.
Radioactivity is measured following extraction into Aquasol-Z (NEN) at an efficiency of 45-50%.

IC50: 479 nM
SMILES: CC1(C)CC(=O)OC(=NCCCCN2CCN(c3ncccn3)CC2)N1 [Compound B, 2-[4-[4-(2-pyrimidinyl)-1-piperazinyl]butylimino]-tetrahydro-4,4-dimethyl-6H-1,3-oxazine-6-one]
